Measured values from patent publication US20070292912A1, “Diffusion-controlling sensor layer” (priority 1999, published 2007).

Columns and labels:
[1] = system: Escherichia coli strain SM101 (pEBZ181) recA-lux SOS reporter gene cells; assay: Activity measurement with the diffusion-controlling sensor layer (SOS reporter gene cells in agarose on TLC plate); assay type: cell-based; conditions: for Rel. bioluminescence: sensor layer 2 mm, 28° C., 60 min
Source text: (§1) The reporter gene cell consists of the Escherichia coli strain SM101 which harbours the recombinant plasmid pEBZ181. This plasmid encodes a fusion between the recA promoter from E. coli and the structural genes of the bacterial luminescence of Vibrio fischeri (lux genes C, D, A, B, E and G). To construct the plasmid, the recA promoter-harbouring Bam H I fragment from the plasmid pUA80 [Barbe J, Fernandez de Henestrosa A R, Calero S, and Gilbert I (1991) Chromogenic Method for rapid isolation of recA-like mutants of Gram-negative bacteria. J. Bacteriol. 173: 404-406] was cloned into a derivative of the vector pEBZ112 [Peitzsch N, Eberz G, and Nies D (1998) Alcaligenes eutrophus as a bacterial chromate sensor. Appl. Environm. Microbiol. 64: 453-458] which harbours, inserted into the Nco I site of the luxG gene, a lacZ cassette [Becker A (1993) Analyse der Succinoglycan-Biosyntheseregion von Rhizobium meliloti 2011: Untersuchungen zur Identifizierung des bakteriellen Infektionssignals in der Symbiose mit Luzeme, doctoral thesis, Bielefeld University, Germany]. Plasmid pEBZ181 was transformed by standard methods [Sambrook J, Fritsch E F, and Maniatis T (1989) Molecular cloning: A laboratory manual (2nd edn), Cold Spring Harbor Laboratory Press] into the Escherichia coli strain SMIOI (obtained from E. coli Genetic Stock Center, Yale University, New Haven, USA) and employed for bioimaging experiments.
Treatment of bacteria with antibacterial agents such as 4-quinolonecarboxylic acids leads to induction of the so-called SOS repair mechanism [Walker C G (1984) Mutagenesis and inducible responses to deoxyribonucleic acid damage in Escherichia coli. Microbiol. Rev. 48: 60-93; Phillips I, Culabras E, Moreno F, and Baquero F (1987) Induction of the SOS response by new 4-quinolones. J. Antimicrob. Chemother. 20: 631-638; Piddock L J V, and Wise R (1987) Induction of the SOS response in Escherichia coli by 4-quinone antimicrobial agents. FEMS Microbiol. Lett. 41: 289-294]. The RecA protein is a main regulator of this repair mechanism, and SOS induction leads to enhanced expression of the recA gene. Measurement of the synthesis of the RecA protein [Little J W and Mount D W (1982) The SOS regulatory system of Escherichia coli. Cell 29: 11-22; Witkin E M (1976) Ultraviolet mutagenesis and inducible DNA repair in Escherichia coli. Bacteriol. Rev. 40: 864-907] or of recA-reporter gene fusions [Nunoshiba T and Nishioka H (1991) Rec-lac test for detecting SOS-inducing activity of environmental genotoxic substances. […]
In both assay formats ciprofloxacin was used for effect-specific induction of the SOS response. The bioluminescence stimulated in the reporter gene system used in this case provided the read-out signal which was recorded by video imaging. […]

[2] = system: Escherichia coli strain SM101 (pEBZ181) recA-lux SOS reporter gene cells; assay: Microtitre plate assay with SOS reporter gene system (recA-lux bioluminescence stimulated by ciprofloxacin); assay type: cell-based; conditions: for Rel. bioluminescence: microtitre plate, 28° C., 60 min, relative to CTAB-free reference
Source text: as §1
Treatment of bacteria with antibacterial agents such as 4-quinolonecarboxylic acids leads to induction of the so-called SOS repair mechanism [Walker C G (1984) Mutagenesis and inducible responses to deoxyribonucleic acid damage in Escherichia coli. Microbiol. Rev. 48: 60-93; Phillips I, Culabras E, Moreno F, and Baquero F (1987) Induction of the SOS response by new 4-quinolones. J. Antimicrob. Chemother. 20: 631-638; Piddock L J V, and Wise R (1987) Induction of the SOS response in Escherichia coli by 4-quinone antimicrobial agents. FEMS Microbiol. Lett. 41: 289-294]. The RecA protein is a main regulator of this repair mechanism, and SOS induction leads to enhanced expression of the recA gene. Measurement of the synthesis of the RecA protein [Little J W and Mount D W (1982) The SOS regulatory system of Escherichia coli. Cell 29: 11-22; Witkin E M (1976) Ultraviolet mutagenesis and inducible DNA repair in Escherichia coli. Bacteriol. Rev. 40: 864-907] or of recA-reporter gene fusions [Nunoshiba T and Nishioka H (1991) Rec-lac test for detecting SOS-inducing activity of environmental genotoxic substances. Mutation Res. 254:71-77] is one possible way of measuring SOS induction and consequently the effect of 4-quinolonecarboxylic acids. Since the strain E. coli SM101 (pEBZ181) harbours a plasmid with a recA-lux reporter gene fusion, it is suitable for detecting 4-quinolonecarboxylic acids or other SOS-inducing compounds. The presence of such compounds leads to enhanced expression of the luciferase gene and thus to a stimulation of bioluminescence.
In both assay formats ciprofloxacin was used for effect-specific induction of the SOS response. The bioluminescence stimulated in the reporter gene system used in this case provided the read-out signal which was recorded by video imaging. In order to test the tolerance of the two bioassay formats to interfering substances, assays were carried out in the presence of cytotoxic cetyltrimethylammonium bromide (CTAB).
Five assay solutions were made up in a 96-well microtitre plate (Dynatech Microlite). A volume of 200 μl contained in each case:
16 μl of reporter gene cell suspension (OD: 1.2 at 660 nm) in 2% LB medium
90 μl of solution of substances 1.-5. in water
1. 25 ng of ciprofloxacin hydrochloride monohydrate
2. 25 ng of ciprofloxacin hydrochloride monohydrate+50 ng of CTAB
3. 25 ng of ciprofloxacin hydrochloride monohydrate+100 ng of CTAB
4. 25 ng of ciprofloxacin hydrochloride monohydrate+200 ng of CTAB
5. 25 ng of ciprofloxacin hydrochloride monohydrate+500 ng of CTAB […]

CCCCCCCCCCCCCCCC[N+](C)(C)C.[Br-] [CTAB, cetyltrimethylammonium bromide]
Rel. bioluminescence ([1]; CTAB 250 ng/200 μl (calculated analogous concentration) with 10 ng ciprofloxacin hydrochloride monohydrate): 1.002
Rel. bioluminescence ([1]; CTAB 500 ng/200 μl (calculated analogous concentration) with 10 ng ciprofloxacin hydrochloride monohydrate): 1.023
bioactivity measurement on addition of CTAB ([1]; sensor layer format, ciprofloxacin-stimulated bioluminescence): not impaired
relative bioluminescence as a measure of the selective stimulation by ciprofloxacin ([1]; sensor layer format, up to CTAB concentrations of 500 ng/200 μl): remained constant
Rel. bioluminescence ([2]; CTAB 50 ng/200 μl with 25 ng ciprofloxacin hydrochloride monohydrate): 0.88
Rel. bioluminescence ([2]; CTAB 100 ng/200 μl with 25 ng ciprofloxacin hydrochloride monohydrate): 0.87
Rel. bioluminescence ([2]; CTAB 200 ng/200 μl with 25 ng ciprofloxacin hydrochloride monohydrate): 0.78
Rel. bioluminescence ([2]; CTAB 500 ng/200 μl with 25 ng ciprofloxacin hydrochloride monohydrate): 0.44
reduction in bioluminescence ([2]; microtitre plate format, CTAB concentrations up to 500 ng/200 μl, ciprofloxacin-stimulated): more than 50%
fall in the bioluminescence (of the initial value) ([2]; microtitre plate format, addition of CTAB, ciprofloxacin-stimulated): about 40%
